pIC50: −log10 of the molar value. Activity calls are given as the source filed them. No cut-off for these calls is given here. Non-standard residues stand in square brackets, D forms with d. Residues, ends and D or L forms follow the SMILES beside them. *: point of attachment. CH2Cl = ClC*
How the values were obtained:
Prothrombin [1] = target: T1, Prothrombin (Homo sapiens, UniProt P00734); experiment: Inhibition of human thrombin
Plasma kallikrein [2] = target: T2, Plasma kallikrein (Homo sapiens, UniProt P03952); experiment: Inhibition of human kallikrein
[3] = target: Coagulation factor VII/tissue factor (Homo sapiens, UniProt P08709); experiment: Inhibition of human tissue factor/factor 7a; format: protein-complex assay
Coagulation factor X [4] = target: T3, Coagulation factor X (Homo sapiens, UniProt P00742); experiment: Inhibition of human factor 10a
Coagulation factor XII = target: T4, Coagulation factor XII (Homo sapiens, UniProt P00748); experiment: Inhibition of human factor 12a
T4 sequence (P00748 whole entry): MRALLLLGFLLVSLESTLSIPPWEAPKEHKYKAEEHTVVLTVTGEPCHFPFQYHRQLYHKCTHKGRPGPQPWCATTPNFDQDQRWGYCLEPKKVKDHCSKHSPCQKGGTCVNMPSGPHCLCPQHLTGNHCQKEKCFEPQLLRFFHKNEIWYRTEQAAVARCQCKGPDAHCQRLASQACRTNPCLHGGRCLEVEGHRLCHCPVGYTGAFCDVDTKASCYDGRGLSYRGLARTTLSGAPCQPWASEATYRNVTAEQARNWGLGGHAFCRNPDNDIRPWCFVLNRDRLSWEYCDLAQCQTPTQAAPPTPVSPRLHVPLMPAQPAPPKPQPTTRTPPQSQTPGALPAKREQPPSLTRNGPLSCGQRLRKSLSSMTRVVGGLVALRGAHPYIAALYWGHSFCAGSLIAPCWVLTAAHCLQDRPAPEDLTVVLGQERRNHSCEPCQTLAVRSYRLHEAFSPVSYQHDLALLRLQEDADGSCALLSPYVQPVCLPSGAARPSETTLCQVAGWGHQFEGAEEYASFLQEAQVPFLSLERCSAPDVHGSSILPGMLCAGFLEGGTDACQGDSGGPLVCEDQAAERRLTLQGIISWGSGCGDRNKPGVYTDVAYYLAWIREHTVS

Prothrombin [5] = target: T1, Prothrombin; experiment: Inhibition of human thrombin at 50 uM
Coagulation factor X [6] = target: T3, Coagulation factor X; experiment: Inhibition of human factor 10a at 50 uM
Plasma kallikrein [7] = target: T2, Plasma kallikrein; experiment: Inhibition of human kallikrein at 50 uM
[8] = target: Coagulation factor VII/tissue factor (Homo sapiens) (UniProt P08709+P13726); experiment: Inhibition of human tissue factor/factor 7a at 50 uM
[9] = target: T5, Coagulation factor XII (Homo sapiens) (UniProt P00748); experiment: Inhibition of human factor 12a at 50 uM
T5 sequence (whole entry): T4 sequence (P00748 whole entry)

[10] = target: T5, Coagulation factor XII (Homo sapiens); experiment: Inhibition of human factor 12a assessed as residual activity at 49.5 uM; details: TDE = time-dependent effect

Coagulation factor VII/tissue factor, sequence (P08709 61-212 limits assumed): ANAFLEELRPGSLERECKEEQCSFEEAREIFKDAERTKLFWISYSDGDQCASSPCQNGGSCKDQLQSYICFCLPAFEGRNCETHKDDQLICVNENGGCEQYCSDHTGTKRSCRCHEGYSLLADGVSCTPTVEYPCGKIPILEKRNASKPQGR
Coagulation factor VII/tissue factor, sequence (P08709 213-466 limits assumed): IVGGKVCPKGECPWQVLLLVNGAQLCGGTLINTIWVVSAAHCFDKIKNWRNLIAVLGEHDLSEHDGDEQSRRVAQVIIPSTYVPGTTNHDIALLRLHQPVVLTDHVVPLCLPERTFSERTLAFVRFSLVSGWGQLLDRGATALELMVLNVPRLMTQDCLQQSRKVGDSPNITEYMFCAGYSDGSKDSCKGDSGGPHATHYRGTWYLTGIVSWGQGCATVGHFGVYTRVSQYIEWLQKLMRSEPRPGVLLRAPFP
Coagulation factor VII/tissue factor, sequence (P13726 33-295 partner limits assumed): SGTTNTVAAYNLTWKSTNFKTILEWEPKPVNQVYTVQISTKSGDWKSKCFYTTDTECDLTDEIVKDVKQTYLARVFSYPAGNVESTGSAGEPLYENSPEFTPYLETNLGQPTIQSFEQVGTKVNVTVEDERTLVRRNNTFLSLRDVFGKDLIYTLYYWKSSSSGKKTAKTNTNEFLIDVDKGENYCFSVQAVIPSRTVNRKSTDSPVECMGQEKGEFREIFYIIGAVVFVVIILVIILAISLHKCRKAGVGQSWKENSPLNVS
T2 sequence (P03952 20-390 limits assumed): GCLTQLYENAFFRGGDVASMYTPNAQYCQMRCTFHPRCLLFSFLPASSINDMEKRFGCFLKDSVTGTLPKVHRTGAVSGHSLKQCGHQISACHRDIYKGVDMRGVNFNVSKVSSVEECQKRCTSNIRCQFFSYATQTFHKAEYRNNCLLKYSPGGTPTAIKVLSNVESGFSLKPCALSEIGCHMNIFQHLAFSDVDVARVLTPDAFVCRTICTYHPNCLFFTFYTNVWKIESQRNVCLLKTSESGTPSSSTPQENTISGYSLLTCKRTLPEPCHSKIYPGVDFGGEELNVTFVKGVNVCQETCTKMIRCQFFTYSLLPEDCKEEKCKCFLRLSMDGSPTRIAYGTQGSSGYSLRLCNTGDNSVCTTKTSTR
T2 sequence (P03952 391-638 limits assumed): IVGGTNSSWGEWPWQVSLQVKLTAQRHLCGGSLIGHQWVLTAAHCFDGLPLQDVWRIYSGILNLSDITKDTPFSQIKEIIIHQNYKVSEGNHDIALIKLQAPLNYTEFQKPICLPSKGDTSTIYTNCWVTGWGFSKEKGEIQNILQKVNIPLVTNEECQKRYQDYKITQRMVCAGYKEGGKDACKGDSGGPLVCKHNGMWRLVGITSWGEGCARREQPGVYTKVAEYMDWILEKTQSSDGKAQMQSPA
T3 sequence (P00742 41-179 limits assumed): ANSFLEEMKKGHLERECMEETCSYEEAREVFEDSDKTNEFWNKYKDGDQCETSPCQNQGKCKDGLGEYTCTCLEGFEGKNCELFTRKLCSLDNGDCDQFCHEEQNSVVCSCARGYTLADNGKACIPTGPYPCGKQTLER
T3 sequence (P00742 235-488 limits assumed): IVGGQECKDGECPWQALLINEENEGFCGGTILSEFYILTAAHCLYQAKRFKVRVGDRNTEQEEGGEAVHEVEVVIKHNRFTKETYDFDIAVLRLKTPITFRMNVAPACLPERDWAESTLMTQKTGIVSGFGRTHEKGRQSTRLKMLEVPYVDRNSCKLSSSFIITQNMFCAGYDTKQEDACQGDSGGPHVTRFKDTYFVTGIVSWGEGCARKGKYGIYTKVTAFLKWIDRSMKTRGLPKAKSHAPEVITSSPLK

Row | SMILES | pIC50 (Prothrombin [1]) | pIC50 (Plasma kallikrein [2]) | pIC50 [3] | pIC50 (Coagulation factor X [4]) | pIC50 (Coagulation factor XII) | Activity (Prothrombin [5]) | Activity (Coagulation factor X [6]) | Activity (Plasma kallikrein [7]) | Activity [8] | Activity [9] | Activity (Prothrombin [1]) | Activity [10]
1 | NC(N)=NCCC[C@H](NC(=O)[C@H](Cc1ccccc1)NC(=O)[C@H]1CCCN1)C(=O)CCl (H-[dP]-Phe-Arg-CH2Cl) | 5.60 | 7.51 | 5.82 | 5.72 | 6.74 | – | – | – | – | – | – | –
2 | Cc1ccc2oc(=O)c(C(=O)NCCc3ccccc3)cc2c1 | – | – | – | – | < 4.30 | inactive | inactive | inactive | inactive | – | – | –
3 | Cc1ccc(NC(=O)c2cc3cc(C)ccc3oc2=O)cc1 | < 4.30 | – | < 4.30 | – | 4.70 | – | inactive | inactive | – | – | – | –
4 | Cc1ccc2oc(=O)c(C(=O)NC(C)C)cc2c1 | – | < 4.30 | < 4.30 | – | – | inactive | inactive | – | – | inactive | – | –
5 | Cc1ccc2oc(=O)c(C(=O)NC3CCCCC3)cc2c1 | – | – | – | – | – | inactive | inactive | inactive | inactive | inactive | – | –
6 | Cc1ccc2oc(=O)c(C(=O)Nc3cccc(Cl)c3)cc2c1 | – | – | – | – | 4.51 | inactive | inactive | inactive | inactive | – | – | –
7 | O=C(Oc1ccccc1)c1cc2cc(CCl)ccc2oc1=O | 5.15 | – | – | < 4.30 | < 4.30 | – | – | inactive | inactive | – | – | –
8 | O=C(Nc1ccccc1)c1cc2ccccc2oc1=O | – | – | – | – | 4.38 | inactive | inactive | inactive | inactive | – | – | –
9 | Cc1ccc2oc(=O)c(C(=O)Oc3ccccc3)cc2c1 | – | – | – | – | – | inactive | inactive | inactive | inactive | inactive | – | –
10 | O=C(Nc1ccccc1)c1cc2c(ccc3ccccc32)oc1=O | < 4.30 | < 4.30 | < 4.30 | < 4.30 | – | – | – | – | – | inactive | – | –
11 | Cc1ccc2oc(=O)c(C(=O)Nc3ccc(Cl)cc3)cc2c1 | < 4.30 | – | – | – | 4.47 | – | inactive | inactive | inactive | – | – | –
12 | O=C(Oc1ccccc1)c1cc2ccccc2oc1=O | – | – | – | – | – | inactive | inactive | inactive | inactive | inactive | – | –
13 | Cc1ccc2oc(=O)c(C(=O)Nc3ccccc3)cc2c1 | < 4.30 | < 4.30 | – | – | 4.64 | – | inactive | – | inactive | – | – | –
14 | CCN(CC)c1ccc2cc(C(=O)Nc3ccccc3)c(=O)oc2c1 | – | < 4.30 | < 4.30 | – | – | inactive | inactive | – | – | inactive | – | –
15 | Cc1cccc(NC(=O)c2cc3cc(Cl)cc(Cl)c3oc2=O)c1 | – | – | – | – | 4.60 | inactive | inactive | inactive | inactive | – | – | –
16 | COc1cccc2cc(C(=O)Nc3ccccc3)c(=O)oc12 | – | < 4.30 | – | < 4.30 | – | – | – | – | inactive | inactive | inactive | –
17 | Cc1cccc(NC(=O)c2cc3cc(Cl)cc(Br)c3oc2=O)c1 | < 4.30 | – | < 4.30 | – | 5.00 | – | inactive | inactive | – | – | – | –
18 | O=C(Nc1ccccc1)c1cc2ccc(O)cc2oc1=O | < 4.30 | < 4.30 | – | < 4.30 | – | – | – | – | inactive | inactive | – | –

Row | SMILES | pIC50 (Prothrombin [1]) | pIC50 (Plasma kallikrein [2]) | pIC50 [3] | pIC50 (Coagulation factor X [4]) | pIC50 (Coagulation factor XII) | Activity (Prothrombin [5]) | Activity (Coagulation factor X [6]) | Activity (Plasma kallikrein [7]) | Activity [8] | Activity [9] | Activity (Prothrombin [1]) | Activity [10]
19 | Cc1ccc2oc(=O)c(C(=O)Nc3ccccc3Cl)cc2c1 | < 4.30 | – | – | – | 4.52 | – | inactive | inactive | inactive | – | – | –
20 | COc1ccc2cc(C(=O)Nc3ccccc3)c(=O)oc2c1 | < 4.30 | < 4.30 | – | < 4.30 | – | – | – | – | inactive | inactive | – | –
21 | Cc1cc(C)cc(NC(=O)c2cc3cc(C)ccc3oc2=O)c1 | < 4.30 | – | – | – | 5.01 | – | inactive | inactive | inactive | – | – | –
22 | O=C(Nc1ccccc1)c1cc2cc(Cl)cc(Br)c2oc1=O | – | – | – | – | 5.36 | inactive | inactive | inactive | inactive | – | – | tde
23 | Cc1cccc(NC(=O)c2cc3cc(C)ccc3oc2=O)c1 | < 4.30 | – | – | – | 5.00 | – | inactive | inactive | inactive | – | – | –
24 | COc1cc(Br)cc2cc(C(=O)Nc3ccccc3)c(=O)oc12 | < 4.30 | – | < 4.30 | – | < 4.30 | – | inactive | inactive | – | – | – | –
25 | Cc1ccc2oc(=O)c(C(=O)Nc3ccccc3C)cc2c1 | < 4.30 | – | – | – | 4.49 | – | inactive | inactive | inactive | – | – | –
26 | O=C(Nc1ccccc1)c1cc2cc(Cl)cc(Cl)c2oc1=O | – | < 4.30 | – | – | 4.72 | inactive | inactive | – | inactive | – | – | –
27 | Cc1ccc2oc(=O)c(C(=O)Nc3cnc4ccccc4c3)cc2c1 | – | – | – | – | 5.08 | inactive | inactive | inactive | inactive | – | – | –
28 | Cc1ccc2oc(=O)c(C(=O)NC3CCCCCCCCCCC3)cc2c1 | – | – | – | – | 4.48 | inactive | inactive | inactive | inactive | – | – | –
29 | O=C(Nc1ccccc1)c1cc2cc(CCl)ccc2oc1=O | < 4.30 | – | – | < 4.30 | 4.77 | – | – | inactive | inactive | – | – | –
30 | Cc1cc(C)cc(NC(=O)c2cc3cc(Cl)cc(Cl)c3oc2=O)c1 | < 4.30 | < 4.30 | < 4.30 | < 4.30 | 5.37 | – | – | – | – | – | – | –
31 | Cc1ccc2oc(=O)c(C(=O)NCc3cccc4ccccc34)cc2c1 | < 4.30 | – | – | – | 4.82 | – | inactive | inactive | inactive | – | – | –
32 | O=C(Nc1ccccc1)c1cc2cc([N+](=O)[O-])ccc2oc1=O | – | – | – | – | 4.66 | inactive | inactive | inactive | inactive | – | – | –
33 | Cc1ccc2oc(=O)c(C(=O)NCc3ccccc3)cc2c1 | – | – | – | – | < 4.30 | inactive | inactive | inactive | inactive | – | – | –
34 | O=C(Nc1ccccc1)c1cc2cc(Br)ccc2oc1=O | – | – | – | – | 4.62 | inactive | inactive | inactive | inactive | – | – | –
35 | Cc1cc(C)cc(NC(=O)c2cc3cc(Cl)cc(Br)c3oc2=O)c1 | < 4.30 | < 4.30 | < 4.30 | < 4.30 | 4.49 | – | – | – | – | – | – | –
36 | Cc1ccc2oc(=O)c(C(=O)NC34CC5CC(CC(C5)C3)C4)cc2c1 | – | – | – | – | 4.54 | inactive | inactive | inactive | inactive | – | – | –
